In patent US6057371A, “Sigma receptor ligands and the use thereof” (Virginia Commonwealth University, priority 1992, dated 2000):
Where two headings read alike, the source gives them in different places.

Assays:
sigma-1 binding site = biological target: T1, sigma-1 binding site (Cavia porcellus, UniProt Q60492); assay: biochemical; design: species or system guinea pig; conditions: for IC50 ratio of sigma-1/sigma-2 (sigma-1 selective compounds): less than about 0.1, see Table 10
T1 construct: Guinea pig whole membrane preparations (P2 microsomal fraction); from tissue; host or cells: guinea pig membranes (P2 microsomal fraction), as described by Weber et al; brain inferred from the sister test b489
Method: [^3 H]DTG was purchased from DuPont/NEN.
The radioactivity on the filters was determined by scintillation spectrometry at an efficiency of about 50% using Cytoscint (ICN) scintillation fluid.

PCP receptor = PCP receptor binding, ^3 H-MK-801; design: species or system rat; conditions: Table 4
Method: PCP receptor binding assays against ^3 H-MK-801 were conducted as described by Keana et al., Proc. Natl. Acad. Sci (USA) 86: 5631-5635 (1989); Keana et al., Life Sciences 43: 965-973 (1988). For (+) ^3 H-MK-801 binding, 1 nM of radioligand was incubated with about 100 ug of thawed rat brain membrane protein for 4 hr at room temperature. The assays were carried out in 5 mM Tris/acetate and were stopped by rapid filtration through Whatman GF/B or Schleicher & Schuell no. 32 glass fiber filters (presoaked in 0.05% polyethylenamine).

sigma-2 binding site = biological target: T2, sigma-2 binding site (Cavia porcellus, UniProt H0V073); assay: biochemical; design: species or system guinea pig; conditions: for IC50: Table 17, read-out: IC50 (nM) at sigma-2
T2 construct: Guinea pig whole membrane preparations (P2 microsomal fraction); from tissue; host or cells: guinea pig membranes (P2 microsomal fraction), as described by Weber et al; brain inferred from the sister test b489
T2 sequence (H0V073 1-176): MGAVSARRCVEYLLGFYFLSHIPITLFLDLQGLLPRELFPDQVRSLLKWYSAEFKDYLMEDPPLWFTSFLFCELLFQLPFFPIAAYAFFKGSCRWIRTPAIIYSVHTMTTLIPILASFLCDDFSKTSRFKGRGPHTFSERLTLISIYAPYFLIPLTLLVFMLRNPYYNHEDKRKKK
Method: For the standard equilibrium assay, the mixtures were incubated for 30 min. at room temperature, then filtered and the radioactivity determined as described above.

5-HT1A receptor = biological target: T3, 5-HT1A receptor (Rattus norvegicus, UniProt P19327); assay: biochemical; assay type: binding; design: 47: 529-540 (1986); from tissue; host or cells: brain tissue, inferred from the cited method (rat frontal cortex)
T3 sequence (P19327 1-422): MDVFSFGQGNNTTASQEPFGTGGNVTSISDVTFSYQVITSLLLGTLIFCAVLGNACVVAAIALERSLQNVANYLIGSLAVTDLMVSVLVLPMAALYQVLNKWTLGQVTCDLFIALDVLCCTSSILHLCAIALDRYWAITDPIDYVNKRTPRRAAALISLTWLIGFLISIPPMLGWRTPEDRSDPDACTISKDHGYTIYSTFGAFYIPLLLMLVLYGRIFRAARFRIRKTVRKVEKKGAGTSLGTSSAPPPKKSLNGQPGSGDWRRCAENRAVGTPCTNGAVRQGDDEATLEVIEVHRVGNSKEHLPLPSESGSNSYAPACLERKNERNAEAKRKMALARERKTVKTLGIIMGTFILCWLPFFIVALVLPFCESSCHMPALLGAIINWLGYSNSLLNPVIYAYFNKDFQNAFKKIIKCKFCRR
Method: Further sigma receptor binding assays against [^3 H]DTG and 5HT-1A binding assays were conducted according to the procedure outlined in the previous examples.

Dopamine D1 receptor = biological target: T4, Dopamine D1 receptor (Rattus norvegicus, UniProt P18901); assay: Dopamine D1 receptor binding, [^3 H]SCH-23390, striatal membranes; conditions: Table 4
T4 construct: Rat striatal membranes were prepared from frozen tissue; from tissue; host or cells: rat striatum, frozen tissue
Method: Dopamine D1 and D2 receptor binding assays were performed as described by Billard et al., Life Sci. 35: 1885-1893 (1984) using [^3 H]SCH-23390 for the D1 receptors and [^3 H]domperidone for the D2 receptors (Baudry et al., Arch. Pharmacol. 308: 231-237 (1979).
Rat striatal membranes were prepared from frozen tissue by Poltron homogenization in 25 volumes of ice cold Tris-EDTA buffer (50 mM Tris-HCl, 1 mM EDTA, pH 7.4 at 4° C.). The homogenate was centrifuged at 48,000× g for 10 min. at 4° C., and the pellet was resuspended in 25 volumes of the same buffer. This suspension was then incubated at 37° C. for 15 min., followed by recentrifugation as before. The resulting pellet was resuspended in 267 volumes of assay buffer (50 mM Tris-HCl, 120 mM NaCl, 5 mM KCl, 2 mM CaCl2, 1 mM MgCl2, pH 7.4 at 37° C.).
The binding assays were conducted with 100 uL of [^3 H]SCH-23390 or [^3 H]domperidone (to give about 1 nM final), 100 uL of buffer or drug solution, and 800 uL of membrane suspension (to give about 250 ug of striatal membrane protein per assay). The tubes were incubated at 37° C. for 60 min. The assays were stopped by rapid filtration over Schleicher & Schuell #32 or Whatman GF/B glass fiber filters (presoaked in 0.5% polyethyleneimine for [^3 H]domperidone binding), followed by two 3 mL washes of ice cold buffer using a Brandel cell harvester. After vigorous shaking, the filter disks were counted at 52% efficiency in 5 mL of Cytoscint (ICN).

sigma receptor = assay: Sigma receptor binding, [^3 H]DTG, brain membranes (both sigma-1 and sigma-2 sites); design: species or system guinea pig; conditions: Examples 5 and 6; [^3 H]DTG
[1] = Table 13, read-out: Sigma-1 IC50
[2] = Table 10, read-out: SIGMA-1 KI vs. 3H-PENTAZOCINE MEAN
[3] = Table 12, read-out: IC50 (nM) at sigma-1
[4] = Table 10, read-out: SIGMA-2 KI vs. 3H-DTG + PENTAZOCINE MEAN

T1 sequence (Q60492 whole entry): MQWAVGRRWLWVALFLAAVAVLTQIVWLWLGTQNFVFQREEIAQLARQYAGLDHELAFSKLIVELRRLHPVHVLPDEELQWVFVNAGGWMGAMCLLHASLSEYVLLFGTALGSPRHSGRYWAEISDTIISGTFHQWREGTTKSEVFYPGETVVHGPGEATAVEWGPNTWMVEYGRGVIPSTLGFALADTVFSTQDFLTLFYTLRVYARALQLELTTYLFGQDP
T4 sequence (P18901 whole entry): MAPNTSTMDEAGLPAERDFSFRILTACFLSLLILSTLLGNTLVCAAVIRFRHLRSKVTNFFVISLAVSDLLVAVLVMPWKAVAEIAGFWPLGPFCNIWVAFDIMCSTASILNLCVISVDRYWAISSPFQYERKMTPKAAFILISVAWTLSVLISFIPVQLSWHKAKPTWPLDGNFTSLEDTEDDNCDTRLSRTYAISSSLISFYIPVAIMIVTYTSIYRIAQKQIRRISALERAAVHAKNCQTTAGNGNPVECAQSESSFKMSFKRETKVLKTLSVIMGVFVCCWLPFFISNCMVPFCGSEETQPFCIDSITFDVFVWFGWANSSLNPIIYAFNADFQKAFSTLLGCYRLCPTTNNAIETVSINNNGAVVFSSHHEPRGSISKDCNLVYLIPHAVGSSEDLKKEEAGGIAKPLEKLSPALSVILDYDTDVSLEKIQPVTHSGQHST

| Compound | IC50 (PCP receptor) | Ratio 5-HT1A /σ (5-HT1A receptor; Table 5) | IC50 (5-HT1A receptor; Table 5, read-out: 5-HT1A IC50) | Ki (sigma-2 binding site; [4]) | other results |
| --- | --- | --- | --- | --- | --- |
| C[C@H](Cc1ccccc1)NCCCc1cccc2ccccc12 [Compound 11, R(-) N-(1-phenyl-2-propyl)-3-(1-naphthyl)propylamine] | > 10 µM | 11 | 0.104 µM |  | IC50 (sigma-1 binding site; [1]): 8.6 nM; reduction in sigma-2 affinity vs. cmp. #1 (sigma-2 binding site; Example 9): about 4 fold |
| C[C@@H](Cc1ccccc1)NCCCCc1ccccc1 [Compound 44, N-(4-phenylbutyl)-1-phenyl-2-propylamine] | > 10 µM |  |  |  | Ki (sigma-1 binding site; SIGMA-1 KI vs. 3H-P[…]): 0.0194 µM; S1/S2 Ratio (sigma-1 binding site; guinea pig, microsomes): .543; Ki (sigma-2 binding site; SIGMA-2 KI vs. 3H-DTG + P[…]): 0.0358 µM; IC50 (5-HT1A receptor): 0.278 µM; Ratio 5-HT1A /σ (5-HT1A receptor): 40 |
| CC(Cc1cccc(Br)c1)NCCCc1ccccc1 (racemic) [Compound 20, (±) N-[1-(3'-Bromophenyl)-2-propyl]-3-phenylpropylamine] | > 10 µM | 17 | 0.108 µM | 0.0261 µM | Ki (sigma-1 binding site; [2]): 0.00965 µM; S1/S2 Ratio (sigma-1 binding site; Table 10, sigma-1/sigma-2): 0.369; IC50 (sigma-1 binding site; [3]): 9.6 nM; IC50 (sigma-2 binding site): 26 nM |
| C[C@@H](Cc1ccccc1)NCCCCCc1ccccc1 [Compound 45, N-(5-phenylpentyl)-1-phenyl-2-propylamine] | > 10 µM |  |  |  | IC50 (sigma-1 binding site): 0.88 nM; change in sigma-1 affinity vs. compound No. 1, words (sigma-1 binding site): substantially increases affinity; Ki (sigma-1 binding site; SIGMA-1 KI vs. 3H-P[…]): 0.00088 µM; S1/S2 Ratio (sigma-1 binding site; guinea pig, microsomes): .048; Ki (sigma-2 binding site; SIGMA-2 KI vs. 3H-DTG + P[…]): 0.0185 µM; IC50 (5-HT1A receptor): 0.594 µM; Ratio 5-HT1A /σ (5-HT1A receptor): 100 |
| CC(Cc1ccc2ccccc2c1)NCCCc1ccccc1 (stereo not shown) [Compound 18, N-(3-phenylpropyl)-1-(2-naphthyl)-2-propylamine] | > 10 µM |  | 0.588 µM | 0.0151 µM |  |
| C[C@@H](Cc1ccccc1)NCCCc1ccccc1 [Compound 43, N-(3-phenylpropyl)-1-pheny1-2-propylamine] | > 10 µM |  | 1.11 µM | 0.0375 µM | 5-HT1A affinity relative to antipode (5-HT1A receptor; S(+) isomer of cmp. #1): only one-tenth the affinity of its antipode |
| CC(Cc1ccc(Br)cc1)NCCCc1ccccc1 (racemic) [Compound 21, (±) N-[1-(4'-Bromophenyl)-2-propyl]-3-phenylpropylamine] | > 10 µM |  | 0.195 µM | 0.0391 µM | IC50 (sigma-2 binding site): 39 nM |
| Clc1cccc(N2CCN(CCc3ccccc3)CC2)c1 [Compound 32, 1-(3'-Chlorophenyl)-4-(2-phenylethyl)piperazine] | > 10 µM | .80 | 0.00873 µM | 0.0424 µM | Ki (sigma-1 binding site; [2]): 0.0149 µM; S1/S2 Ratio (sigma-1 binding site; Table 10, sigma-1/sigma-2): 0.352 |
| CCCC(N)Cc1ccccc1 (racemic) [Compound 34, (±) 1-Phenyl-2-aminopentane] | > 10 µM | 2.6 | 6.65 µM | 10.3 µM | Ki (sigma-1 binding site; [2]): 1.18 µM; S1/S2 Ratio (sigma-1 binding site; Table 10, sigma-1/sigma-2): 0.115 |
| CC(Cc1cccc(C(F)(F)F)c1)NCCCc1ccccc1 (racemic) [Compound 23, (±) N-[1-(3'-Trifluoromethyl)-2-propyl]-3-phenylpropylamine] | > 10 µM | 25 | 0.106 µM | 0.0208 µM | Ki (sigma-1 binding site; [2]): 0.00875 µM; S1/S2 Ratio (sigma-1 binding site; Table 10, sigma-1/sigma-2): 0.420; IC50 (sigma-1 binding site; [3]): 8.8 nM; IC50 (sigma-2 binding site): 21 nM |
| CN[C@H](C)Cc1ccccc1 [Compound 3] | > 10 µM |  | 1.78 µM |  |  |
| COc1ccc(CC(C)NCCCc2ccccc2)cc1 (stereo not shown) [Compound 19] | > 10 µM |  | 0.114 µM |  | IC50 (Dopamine D1 receptor): > 10 µM; Ratio 5-HT1A /σ (5-HT1A receptor): 7.6 |
| c1ccc(CCCNC2CCc3ccccc3CC2)cc1 [Compound 49] | > 10 µM |  | 0.313 µM |  | IC50 (Dopamine D1 receptor): > 10 µM; Ratio 5-HT1A /σ (5-HT1A receptor): 30 |
| C[C@H](Cc1ccccc1)NCCCc1ccc2ccccc2c1 [Compound 12, R(-) N-(1-phenyl-2-propyl)-3-(2-naphthyl)propylamine] | > 10 µM | 56 | 0.132 µM | 0.258 µM | Ki (sigma-1 binding site; [2]): 0.00573 µM; S1/S2 Ratio (sigma-1 binding site; Table 10, sigma-1/sigma-2): 0.022; IC50 (sigma-1 binding site; [1]): 5.7 nM; IC50 ratio of sigma-1/sigma-2 (sigma-1 selective compounds) (sigma-1 binding site): less than 0.1; reduction in sigma-2 affinity vs. cmp. #1 (sigma-2 binding site; Example 9): about 4 fold |
| CC(Cc1cccc2ccccc12)NCCCc1ccccc1 (racemic) [Compound 16, (±) N-[1-(1'-Naphthyl)-2-propyl]-3-phenylpropylamine] | > 10 µM |  | 0.0448 µM | 0.152 µM | Ki (sigma-2 binding site; Example 9, read-out: sigma-2 binding affinity): 0.15 µM |
| C[C@H](Cc1ccccc1)NCC#Cc1ccccc1 [Compound 25] | > 10 µM | 7.3 | 0.753 µM |  |  |
| CC(Cc1ccc2ccccc2c1)NCCCc1ccccc1 (racemic) [Compound 17, (±) N-[1-(2'-Naphthyl)-2-propyl]-3-phenylpropylamine] | > 10 µM |  | 0.0878 µM | 0.222 µM |  |
| CC(Cc1ccccc1)NCCCCc1ccccc1 (racemic) [Compound 10, (±) N-(1-phenyl-2-propyl)-4-phenylbutylamine] | > 10 µM | 22 | 0.212 µM | 0.0532 µM | change in sigma-1 affinity vs. compound No. 1, words (sigma-1 binding site; Example 8): doubles affinity; Ki (sigma-1 binding site; [2]): 0.00468 µM; S1/S2 Ratio (sigma-1 binding site; Table 10, sigma-1/sigma-2): 0.088; IC50 (sigma-1 binding site; Table 14, read-out: IC50 (nM) at sigma-1): 4.7 nM; IC50 ratio of sigma-1/sigma-2 (sigma-1 selective compounds) (sigma-1 binding site): less than 0.1 |
| c1ccc(CCCN2CCC(c3ccccc3)CC2)cc1 [Compound 39] | > 10 µM | 75 | 0.0896 µM |  |  |
| C[C@@H](Cc1ccccc1)NCCc1ccccc1 [Compound 27] | > 10 µM | 200 | 6.51 µM |  |  |
| c1ccc(CCCN2CCN(c3ccc4ccccc4c3)CC2)cc1 [Compound 50] | > 10 µM | 94 | 0.282 µM |  |  |
| CCCN[C@H](C)Cc1ccccc1 [Compound 5] | > 10 µM | .88 | 1.5 µM |  |  |
| CC(NCCCc1ccccc1)C(=O)c1ccccc1 (stereo not shown) [Compound 13] | > 10 µM | 2 | 0.288 µM |  |  |
| C[C@@H](N)Cc1ccc([N+](=O)[O-])cc1 [Compound 30] | > 10 µM | 2.6 | 55 µM |  |  |
| C[C@H](Cc1ccccc1)NCCOc1ccccc1 [Compound 8] | > 10 µM | .92 | 0.0437 µM |  | change in sigma receptor affinity vs. analog (sigma receptor): about 7 fold |
